{"source": "paper PMC5844530", "about": "“Fosmetpantotenate (RE-024), a phosphopantothenate replacement therapy for pantothenate kinase-associated neurodegeneration: Mechanism of action and efficacy in nonclinical models” (PLoS ONE, 2018)", "key": {"[1]": {"assay": "Metabolic stability in human whole blood", "assay_type": "in vitro ADME", "conditions": "for Percentage Remaining: human whole blood, replicates 1 and 2, listed as Fosmetpantotenate Total", "method": "(§1) Metabolic stability in blood and liver microsomes: Fosmetpantotenate or its individual diastereomers (5 μM, n = 2, 37°C) were incubated in mouse, rat, cynomolgus monkey, and human whole blood. Samples (50 μL) were taken at 0, 5, 15, 30, and 60 min. Incubations of fosmetpantotenate or its individual diastereomers (1 μM, n = 2, 37°C) in pooled liver microsomes (0.25 mg protein/mL in 0.1 M phosphate buffer pH 7.4) were initiated with the addition of nicotinamide adenine dinucleotide phosphate (NADPH; 1 mM). Aliquots (100 μL) were obtained at 0, 5, 10, 20, and 40 min and added to 150 μL of 0.1% formic acid in acetonitrile-containing carbamazepine (0.5 μM) as an analytical internal standard, centrifuged, and the supernatants analyzed by LC-MS/MS.\n(§2) Bioanalysis for determinations of analyte stability: Samples were analyzed using a benchtop tandem quadrupole detector (TQD) mass spectrometer (Waters Ltd, Centennial Park, Hertfordshire). […] Suitable retention and peak shape with separation of the 2 diastereomers were obtained. The chromatography column was a Phenomenex-Kinetex XB C18 (2.10 x 50 mm; 2.6 μm), with a 0.7 mL/min flow rate and a 2 μL injection volume. […] The gradient was initiated with 20% B and increased linearly, reaching 40% B at 0.6 min, followed by 50% B at 0.8 min and by 95% B at 0.9 min. Conditions were kept isocratic through 1.2 min, returned to starting conditions (20% B) at 1.25 min, and maintained at 20% B through 1.5 min before the next injection. Since fosmetpantotenate is a mixture of diastereomers which are resolved chromatographically, the fosmetpantotenate MRM area corresponds to the sum of the MRM areas of the individual diastereomers.\n(§3) The percent of compound remaining was determined from the MRM area response in each sample relative to that in the T = 0 samples (normalized for internal standard). Natural log plots of the percent compound remaining over time were used to determine the t½ of compound disappearance using the relationship t½ = -0.693/λ, where λ is the slope of the natural logarithm of the percent compound remaining vs time curve."}, "[2]": {"assay": "Stability in simulated gastric fluid", "assay_type": "in vitro ADME", "conditions": "simulated gi fluid; pH 1.2; 3.2 mg/mL pepsin; 10 μM; read-out: half-life (t½) in simulated gastric fluid", "method": "Stability in simulated gastric fluid: A stock solution of fosmetpantotenate or its individual diastereomers was prepared in 0.1% formic acid in methanol. Simulated gastric fluid, pH 1.2, was prepared with 2 g/L sodium chloride, 3.2 g/L of pepsin, and 0.7% (v/v) HCl. Gastric buffer, pH 1.2, was prepared containing 2 g/L sodium chloride and 0.7% (v/v) HCl. An appropriate aliquot of fosmetpantotenate or individual diastereomers to yield an initial concentration of 10 μM was added to both fluids, and samples were mixed at ~25°C on an orbital shaker. Aliquots (50 μL) were taken at 0, 2, and 4 h; added to 150 μL dimethyl sulfoxide (DMSO) containing an analytical internal standard; vortexed; and analyzed immediately by LC-MS/MS.\nas §2, §3"}, "[3]": {"tested_on": "PanK2 knockdown cells (acetylated tubulin)", "assay": "Western blot analysis of acetylated tubulin", "assay_type": "cell-based, human", "conditions": "for Tubulin Acetylation (fold of control): mean ± SD of 3 independent experiments, β-actin normalization; for Acetyl tubulin level (fold over vehicle): single experiments Exp1 (n=1), Exp2 (n=3), Exp3 (n=3), listed as RE-024; for Acetyl tubulin (quantification) / Acetyl tubulin Normalized (to actin): 1 µM fosmetpantotenate, replicates 1-2", "method": "After incubation, the cells were lysed in RIPA buffer containing 300 mM NaCl, 10 mM Tris HCl pH 8.0, 10 mM KCl, 1 mM ethylenediaminetetraacetic acid (EDTA), 1% Nonidet-P40, 1% sodium deoxycholate, 0.1% SDS, 1 mM phenylmethanesulfonyl fluoride, and protease inhibitor cocktail (11697498001, Roche, Indianapolis, IN), and sonicated on ice with a Branson 450 sonicator through 2 cycles of ten 2s pulses (1 min pause between cycles). Total protein concentration was determined using a Bio-Rad Protein Assay (500–0006, Biorad, Hercules, CA). Cell extracts were subjected to sodium dodecyl sulfate polyacrylamide gel electrophoresis (SDS-PAGE) analysis (4–12%, NP0335BOX, Life Technologies, Great Island, NY) and transferred to a nitrocellulose membrane (10401396, Whatman, Maidstone, UK). Immunostaining was accomplished by overnight incubation with primary antibodies followed by 1 h of incubation with dye-conjugated secondary antibodies according to the manufacturer’s instructions. Protein detection was achieved using an Infrared Odyssey system (LiCor, Lincoln, NE). Densitometric analysis of western blots was performed using ImageJ software; the statistical significance was determined using a t-test. Actin was used as a normalization probe."}, "[4]": {"assay": "Metabolic stability in monkey whole blood", "assay_type": "in vitro ADME, cynomolgus monkey", "conditions": "for Percentage Remaining: monkey whole blood, replicates 1 and 2, listed as Fosmetpantotenate Total", "method": "as §1, with “Samples (50 μL) were taken at 0, 5, 15, 30, and 60 min.” left out\nas §2, §3"}}, "note": "“And” between values parts separate entries of the source, which are not always exact repeats. Equal entries are not always repeated."}
{"molecule": "COC(=O)CCNC(=O)[C@H](O)C(C)(C)COP(=O)(N[C@@H](C)C(=O)OC)Oc1ccccc1", "note": "(mixture of isomers) [Fosmetpantotenate]", "values": [{"measurement": "half-life at 5 μM", "setting": "[1]; human blood, 5 μM, 37°C, 60 min", "value": 67, "unit": "min"}, {"measurement": "Percentage Remaining", "setting": "[1]; 5 min", "value": "103% and 90%"}, {"measurement": "Percentage Remaining", "setting": "[1]; 15 min", "value": "114% and 99%"}, {"measurement": "Percentage Remaining", "setting": "[1]; 30 min", "value": "77% and 71%"}, {"measurement": "Percentage Remaining", "setting": "[1]; 60 min", "value": "56% and 55%"}, {"measurement": "half-life at 10 μM", "setting": "[2]", "value": "> 600", "unit": "min"}, {"measurement": "change in acetyl tubulin", "setting": "[3]; 1 μM TID, day 1", "value": "statistically significant decrease"}, {"measurement": "increase in acetyl tubulin", "setting": "[3]; 1 μM TID, day 5", "value": "~ 1.6 fold"}, {"measurement": "Tubulin Acetylation (fold of control)", "setting": "[3]; 25 μM", "value": "2.32 ± 0.64 fold of control"}, {"measurement": "Acetyl tubulin level (fold over vehicle)", "setting": "[3]; 25 µM", "value": "1.86 fold over vehicle and 2.77 ± 0.13 fold over vehicle"}, {"measurement": "Tubulin Acetylation (fold of control)", "setting": "[3]; 50 μM", "value": "3.68 ± 1.13 fold of control"}, {"measurement": "Acetyl tubulin level (fold over vehicle)", "setting": "[3]; 50 µM", "value": "3.02 fold over vehicle and 3.03 ± 0.05 fold over vehicle and 4.99 ± 0.03 fold over vehicle"}, {"measurement": "Tubulin Acetylation (fold of control)", "setting": "[3]; 200 μM", "value": "5.12 ± 2.57 fold of control"}, {"measurement": "Acetyl tubulin (quantification)", "setting": "[3]; Experiment 1, DAY 1", "value": "5352.933 and 4967.69"}, {"measurement": "Acetyl tubulin Normalized (to actin)", "setting": "[3]; Experiment 1, DAY 1", "value": 1.0}, {"measurement": "Acetyl tubulin (quantification)", "setting": "[3]; Experiment 1, DAY 3", "value": "5869.761 and 6720.347"}, {"measurement": "Acetyl tubulin Normalized (to actin)", "setting": "[3]; Experiment 1, DAY 3", "value": "1.2 and 1.5"}, {"measurement": "Acetyl tubulin (quantification)", "setting": "[3]; Experiment 1, DAY 5", "value": "9323.933 and 10851.882"}, {"measurement": "Acetyl tubulin Normalized (to actin)", "setting": "[3]; Experiment 1, DAY 5", "value": "2.0 and 2.1"}, {"measurement": "Acetyl tubulin (quantification)", "setting": "[3]; Experiment 2, DAY 1", "value": "2820.548 and 2422.355"}, {"measurement": "Acetyl tubulin Normalized (to actin)", "setting": "[3]; Experiment 2, DAY 1", "value": "1.1 and 1.0"}, {"measurement": "Acetyl tubulin (quantification)", "setting": "[3]; Experiment 2, DAY 3", "value": "5646.447 and 4155.426"}, {"measurement": "Acetyl tubulin Normalized (to actin)", "setting": "[3]; Experiment 2, DAY 3", "value": 2.6}, {"measurement": "Acetyl tubulin (quantification)", "setting": "[3]; Experiment 2, DAY 5", "value": "4976.426 and 5163.962"}, {"measurement": "Acetyl tubulin Normalized (to actin)", "setting": "[3]; Experiment 2, DAY 5", "value": "2.2 and 1.9"}, {"measurement": "half-life at 5 μM", "setting": "[4]; monkey blood, 5 μM, 37°C, 60 min", "value": 41, "unit": "min"}, {"measurement": "Percentage Remaining", "setting": "[4]; 5 min", "value": "79% and 108%"}, {"measurement": "Percentage Remaining", "setting": "[4]; 15 min", "value": "66% and 98%"}, {"measurement": "Percentage Remaining", "setting": "[4]; 30 min", "value": "45% and 79%"}, {"measurement": "Percentage Remaining", "setting": "[4]; 60 min", "value": "22% and 35%"}, {"measurement": "Percentage Remaining", "setting": "[4]; 90 min", "value": "15% and 35%"}, {"measurement": "Percentage Remaining", "setting": "[4]; 120 min", "value": "10% and 17%"}]}
